# Data: patent US20040142317A1, “Use of amino acid transporter atbo,+ as a delivery system for drugs and prodrugs” (priority 2003, published 2004)
# Biological target: T1, ATA1 (Homo sapiens, UniProt Q9H2H9)
# T1 construct: expressed in transfected cells; host or cells: HRPE cells
# T1 sequence (Q9H2H9 1-487): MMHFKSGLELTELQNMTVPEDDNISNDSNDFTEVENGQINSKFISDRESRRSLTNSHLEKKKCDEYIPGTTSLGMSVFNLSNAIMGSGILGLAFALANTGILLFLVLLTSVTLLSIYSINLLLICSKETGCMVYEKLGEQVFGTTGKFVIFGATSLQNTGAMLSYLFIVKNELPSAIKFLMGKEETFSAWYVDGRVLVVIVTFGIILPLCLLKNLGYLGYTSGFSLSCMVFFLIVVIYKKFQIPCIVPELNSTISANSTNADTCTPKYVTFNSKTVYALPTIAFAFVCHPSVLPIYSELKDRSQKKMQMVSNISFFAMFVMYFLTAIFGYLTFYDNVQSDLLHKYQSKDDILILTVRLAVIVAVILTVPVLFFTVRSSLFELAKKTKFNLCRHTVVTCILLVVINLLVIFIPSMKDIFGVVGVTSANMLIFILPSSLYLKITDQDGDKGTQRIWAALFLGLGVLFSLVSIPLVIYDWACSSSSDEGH
# Assay: D-[3H]-serine transport in HRPE cells transfected with transporter cDNA
# Type: cell-based
# Details: D-[3H]-serine 5 μM
# Procedure: Transport of D-[^3H]-serine (5 μM) was measured in HRPE cells transfected with cDNA of each transporter.
# The present inventors evaluated the function of 10 different amino acid transporter clones with respect to transport of D-serine in heterologous expression systems (FIG. 11). All of these transporters are expressed in the intestinal tract. The list of the transporters tested include three energy-independent, heterodimeric facilitative transporters (L1, L2, and b^0,+), three subtypes of the Na^+-coupled system A (ATA1, ATA2, and ATA3), two subtypes of the Na^+- and H^+-coupled system N (SN1 and SN2), the Na^+-coupled system ATB^0, and the Na^+- and Cl^−-coupled system ATB^0,+. […] The ability to transport D-serine was the highest for the Na^+- and Cl^−-coupled transporter ATB^0,+. ATB^0,+ belongs to the gene family of neurotransmitter transporters whose transport function is energized by multiple driving forces, namely a Na^+ gradient, a Cl^− gradient, and membrane potential. […] Based on the energetics of these two transport systems, ATB^0,+ is expected to play the leading role in this process.
structure (smiles),measurement,value
"N[C@H](CO)C(=O)O [D-Serine, D-serine]",D-serine transport,showed D-serine transport activity
